Results taken from US8618111B2, “5-alkynyl-pyrimidines” (Boehringer Ingelheim International GmbH, priority 2010, dated 2013).

Legend:
[1] = target: PI3Kalpha (Homo sapiens (Human), UniProt P42336); assay: Inhibition of PI3Kalpha-induced PIP-2 phosphorylation (filter-binding assay); type: biochemical; conditions: 33P-ATP
Experimental: Inhibition of PI3Kalpha-Induced PIP-2 Phosphorylation
Method Type: Filter-Binding-Assay
Aliquoted in desired amounts and stored at −80° C. Final assay concentration 25 ng/well.

[2] = tested on: PC3 (human prostate carcinoma cell line) cells; assay: PC3 proliferation test; type: cell-based; conditions: PC-3, 72 h, 3 days incubation, DNA dye fluorescence
[3] = target: mTOR (Homo sapiens (Human), UniProt P42345); assay: mTOR kinase activity assay (phosphorylation status of mTOR substrate 4E-BP1; TR-FRET); type: biochemical; conditions: GFP-4E-BP1 substrate, 8 μM ATP
mTOR, sequence (P42345 1360-2549): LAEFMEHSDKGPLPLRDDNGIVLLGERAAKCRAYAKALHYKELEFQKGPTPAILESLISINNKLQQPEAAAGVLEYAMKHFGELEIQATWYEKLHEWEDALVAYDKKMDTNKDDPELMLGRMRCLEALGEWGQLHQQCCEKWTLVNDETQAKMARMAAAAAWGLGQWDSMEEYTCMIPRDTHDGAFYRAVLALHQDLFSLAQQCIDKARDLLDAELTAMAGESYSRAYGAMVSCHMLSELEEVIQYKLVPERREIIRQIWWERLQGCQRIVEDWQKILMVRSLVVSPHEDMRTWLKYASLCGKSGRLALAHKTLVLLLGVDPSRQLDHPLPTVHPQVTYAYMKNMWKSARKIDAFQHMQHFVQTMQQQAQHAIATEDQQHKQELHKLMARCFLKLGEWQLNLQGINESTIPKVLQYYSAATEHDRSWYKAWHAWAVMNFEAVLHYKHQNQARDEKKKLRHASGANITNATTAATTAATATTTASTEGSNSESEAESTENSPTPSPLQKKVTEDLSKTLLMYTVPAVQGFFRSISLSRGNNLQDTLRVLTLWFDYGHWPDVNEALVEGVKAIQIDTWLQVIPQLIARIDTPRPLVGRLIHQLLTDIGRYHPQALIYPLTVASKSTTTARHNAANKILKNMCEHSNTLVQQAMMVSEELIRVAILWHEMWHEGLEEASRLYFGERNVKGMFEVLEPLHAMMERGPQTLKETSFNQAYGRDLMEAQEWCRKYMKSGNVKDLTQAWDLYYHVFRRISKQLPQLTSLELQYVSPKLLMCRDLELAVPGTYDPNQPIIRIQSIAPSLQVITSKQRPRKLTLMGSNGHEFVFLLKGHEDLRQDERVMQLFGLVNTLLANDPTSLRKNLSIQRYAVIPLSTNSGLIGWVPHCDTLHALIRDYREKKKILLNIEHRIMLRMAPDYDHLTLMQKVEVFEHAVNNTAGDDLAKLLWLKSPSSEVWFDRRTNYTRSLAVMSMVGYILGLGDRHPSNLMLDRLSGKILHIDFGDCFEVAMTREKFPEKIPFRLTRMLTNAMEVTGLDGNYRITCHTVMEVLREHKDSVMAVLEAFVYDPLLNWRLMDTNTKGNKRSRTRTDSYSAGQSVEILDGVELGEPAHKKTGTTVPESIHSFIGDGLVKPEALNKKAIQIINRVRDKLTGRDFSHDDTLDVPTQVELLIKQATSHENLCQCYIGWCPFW
Experimental: mTOR Kinase Activity Assay
(Phosphorylation Status of mTOR Substrate 4E-BP1; TR-FRET)
The mTOR kinase TR-FRET assay utilizes a physiologically relevant protein substrate for mTOR (4E-BP1, labeled with an acceptor fluorophore (Green Fluorescent Protein) and paired with a corresponding Tb-labeled phospho-specific antibody.
The assay itself is divided into two phases: the reaction phase and the detection phase. In the reaction phase, all components required for the kinase reaction are added to the well, including the labeled protein substrate. The reaction is allowed to incubate for 60 minutes. After the reaction, EDTA is added to stop the kinase reaction, and terbium-labeled antibody is added to bind phosphorylated product. Because the terbium chelate is stable at the EDTA concentrations used to stop a kinase assay, the antibody and EDTA can be pre-mixed prior to addition to minimize pipetting steps. Binding of the terbium labeled antibody to the fluorophore-labeled phosphorylated product brings the terbium and GFP into proximity, resulting in an increase in TR-FRET. In the presence of an inhibitor, formation of phosphorylated product is reduced, and the TR-FRET value is decreased.
• GFP-4E-BP1 substrate; Invitrogen order no. PV4759 • Lanthascreen Tb-anti-p4E-BP1 (pThr46) Antibody Kit; Invitrogen order no. PV4758 • FRAP1 (mTOR) kinase; Invitrogen order no.
400 nM GFP-4E-BP1, 8 μM ATP, ˜150 ng/mL mTOR, 50 mM HEPES pH 7.5, 0.01% Polysorbate 20, 1 mM EGTA, 10 mM MnCl2, and variable amounts of test compounds.
Note: Thaw and keep mTOR, the substrate, ATP, and the antibody on ice prior to making working dilutions. Working dilutions of these components can be kept at room temperature for short periods of time the day of use. • 1. Add 2 ml of 5× Assay Buffer to 8 ml water to prepare 10 ml of 1× Assay Buffer, wherein the concentration of 1× Assay Buffer is 50 mM HEPES pH 7.5, 0.01% Polysorbate 20, 1 mM EGTA, and 10 mM MnCl2. • 2. Prepare Antibody/EDTA Solution by first adding 2.75 μl of Tb-anti p4E-BP1 Antibody to 2397 μl of LanthaScreen™ TR-FRET Dilution Buffer. Then, add 100 μl of 0.5 M EDTA. • 3. […] Then, add 1.6 μl of mTOR (0.45 mg/mL). • 4. Prepare ATP Solution by adding 3.2 μl of 10 mM ATP to 1997 μl of 1× Assay Buffer. Serial Dilution of Inhibitors (16 Point Curve)
Inhibitors are serially diluted in DMSO, then diluted to a 4× working concentration with 1× Assay Buffer. • 1. Dispense 40 μl of DMSO to two adjacent columns of a 96 well plate per compound (e.g. columns 1 and 2). • 2. Add 10 μl of inhibitor stock (10 mM) to the first well of the first column (A1) and mix. • 3. Remove 10 μl from A1 and transfer to the adjacent well in the next column (B1) and mix. • 4. Remove 10 μl from B1 and transfer to the next well in the first column (B2) and mix. • 5. […] Remove 4 μl of diluted compounds and add to 96 μl of 1× Assay Buffer in a 96-well plate making 4× compound dilutions. Kinase Reaction • 1. Add 2.5 μl of 4X compound dilutions to a 384-well plate. • 2. […] Preincubate for […] at RT (shaker). • 5. Add 5 μl of ATP Solution to all wells to start reactions. • 6. Shake the assay plate on a plate shaker for 30 seconds. • 7. Incubate the assay plate for one hour at room temperature (20-25° C.). Stop Step and Fluorescence Detection • 1. Add 10 μl of Antibody/EDTA Solution to each well in columns 1-9. • 2. Shake the assay plate on a plate shaker for 30 seconds. • 3. Incubate the assay plate for one hour at room temperature (20-25° C.). • 4. Measure the GFP (FRET) and terbium (reference) emission signals on a fluorescence plate reader (e.g. Perkin Elmer Envision). Data Analysis • 1. Calculate the emission ratio for each sample by dividing the GFP (FRET) signal by the terbium (reference) signal. • 2.

PI3Kalpha, sequence (P42336 whole entry, species assumed): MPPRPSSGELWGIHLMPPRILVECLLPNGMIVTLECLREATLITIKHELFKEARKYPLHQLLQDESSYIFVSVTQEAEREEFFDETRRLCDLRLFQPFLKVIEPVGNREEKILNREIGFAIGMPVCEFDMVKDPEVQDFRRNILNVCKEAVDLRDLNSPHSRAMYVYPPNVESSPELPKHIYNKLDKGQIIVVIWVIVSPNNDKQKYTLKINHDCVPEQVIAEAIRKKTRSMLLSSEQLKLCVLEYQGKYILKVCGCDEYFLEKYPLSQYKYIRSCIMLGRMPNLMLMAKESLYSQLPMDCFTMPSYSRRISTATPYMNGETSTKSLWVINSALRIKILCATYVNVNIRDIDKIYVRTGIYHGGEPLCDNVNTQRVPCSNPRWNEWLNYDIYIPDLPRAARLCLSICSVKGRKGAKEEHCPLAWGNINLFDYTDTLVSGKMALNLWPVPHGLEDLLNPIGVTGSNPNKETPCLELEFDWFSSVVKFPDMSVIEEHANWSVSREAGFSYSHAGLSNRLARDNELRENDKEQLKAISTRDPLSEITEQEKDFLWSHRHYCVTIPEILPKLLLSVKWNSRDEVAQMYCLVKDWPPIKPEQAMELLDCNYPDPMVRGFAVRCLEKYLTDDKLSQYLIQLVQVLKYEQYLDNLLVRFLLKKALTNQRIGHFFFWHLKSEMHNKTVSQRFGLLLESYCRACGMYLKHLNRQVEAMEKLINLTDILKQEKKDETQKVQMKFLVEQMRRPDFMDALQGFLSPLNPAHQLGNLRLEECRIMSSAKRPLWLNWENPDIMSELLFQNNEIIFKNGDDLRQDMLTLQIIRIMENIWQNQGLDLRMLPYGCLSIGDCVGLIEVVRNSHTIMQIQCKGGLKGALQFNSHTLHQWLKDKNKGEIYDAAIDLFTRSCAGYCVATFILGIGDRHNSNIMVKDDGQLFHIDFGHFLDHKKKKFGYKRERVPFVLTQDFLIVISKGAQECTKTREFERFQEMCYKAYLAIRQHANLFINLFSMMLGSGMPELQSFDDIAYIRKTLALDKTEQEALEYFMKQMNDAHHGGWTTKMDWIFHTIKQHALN
PI3Kalpha, sequence (P27986 whole entry partner, species assumed): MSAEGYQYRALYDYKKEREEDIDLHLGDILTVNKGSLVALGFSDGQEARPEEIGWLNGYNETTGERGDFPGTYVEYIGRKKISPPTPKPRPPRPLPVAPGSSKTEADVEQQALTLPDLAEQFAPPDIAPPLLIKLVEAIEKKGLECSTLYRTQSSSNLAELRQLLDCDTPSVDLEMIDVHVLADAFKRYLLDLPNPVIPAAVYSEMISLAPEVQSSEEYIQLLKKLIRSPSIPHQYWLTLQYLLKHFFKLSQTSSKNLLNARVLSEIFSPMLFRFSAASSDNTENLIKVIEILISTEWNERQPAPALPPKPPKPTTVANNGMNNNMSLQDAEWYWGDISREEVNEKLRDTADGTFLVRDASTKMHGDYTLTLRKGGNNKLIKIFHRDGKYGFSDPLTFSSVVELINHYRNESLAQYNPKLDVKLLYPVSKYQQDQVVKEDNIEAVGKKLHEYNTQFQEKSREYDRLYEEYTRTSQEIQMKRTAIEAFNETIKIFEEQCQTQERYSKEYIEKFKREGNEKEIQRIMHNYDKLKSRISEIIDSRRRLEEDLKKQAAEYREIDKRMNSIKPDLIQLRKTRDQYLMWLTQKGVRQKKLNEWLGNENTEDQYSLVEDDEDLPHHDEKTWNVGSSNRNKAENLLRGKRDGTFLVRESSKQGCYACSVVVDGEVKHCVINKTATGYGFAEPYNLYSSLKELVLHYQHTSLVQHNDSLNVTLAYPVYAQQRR

| SMILES | IC50 PI3Ka [1] [nM] | EC50 [2] [nM] | IC50 [3] [nM] |
| --- | --- | --- | --- |
| Cc1ncnc(N2CCN(C)CC2)c1C#Cc1ccc(N)nc1 [Example B-8] | 547 | 277 | 56 |
| Cc1ncnc(N2CCC3(CCN(C)C3=O)CC2)c1C#Cc1ccc(N)nc1 [Example B-75] | 48 | 92 | 10 |
| CCc1ncnc(N2CCC(CCO)CC2)c1C#Cc1ccc(N)nc1 [Example B-18] | 35 | 34 | 5 |
| Cc1ncnc(N2CCC(C)(O)CC2)c1C#Cc1ccc(N)nc1 [Example B-23] | – | 19 | 7 |
| CCc1ncnc(N2CCN(C)CC2)c1C#Cc1ccc(N)nc1 [Example B-56] | 1551 | 268 | 57 |
| CCc1ncnc(N2CCC(OCCOC)CC2)c1C#Cc1ccc(N)nc1 [Example B-37] | 89 | 148 | 36 |
| CCc1ncnc(N2CCN(C3CCOCC3)CC2)c1C#Cc1ccc(N)nc1 [Example H-12] | 141 | – | 77 |
| Cc1ncnc(N2CCC(CC(=O)N3CCN(C)CC3)CC2)c1C#Cc1ccc(N)nc1 [Example E-2] | 96 | – | 366 |
| CCc1ncnc(N2CCC3(CCCCC3)CC2)c1C#Cc1ccc(N)nc1 [Example H-3] | 369 | – | 333 |
| CCc1ncnc(N2CCc3ccccc3C2)c1C#Cc1ccc(N)nc1 [Example H-17] | 56 | – | 68 |
| CCc1ncnc(N2CCC(O)(CC)CC2)c1C#Cc1ccc(N)nc1 [Example B-36] | – | 20 | 5 |
| CCc1ncnc(N2CCN(CCCS(C)(=O)=O)CC2)c1C#Cc1ccc(N)nc1 [Example H-15] | 108 | – | 25 |
| CCc1ncnc(N2CCN(c3ccccc3C(F)(F)F)CC2)c1C#Cc1ccc(N)nc1 [Example H-19] | 1861 | – | 2000 |
| CCc1ncnc(N2CCN(C(=O)N3CCOCC3)CC2)c1C#Cc1ccc(N)nc1 [Example H-16] | 116 | – | 22 |
| CCc1ncnc(N2CCN(Cc3nc(C)c(C)o3)CC2)c1C#Cc1ccc(N)nc1 [Example H-28] | 232 | – | 258 |
| CCc1ncnc(N2CCN(C3COC3)CC2)c1C#Cc1ccc(N)nc1 [Example H-26] | 105 | – | 47 |
| Cc1ncnc(N2CCC(=O)CC2)c1C#Cc1ccc(N)nc1 [Example B-65] | – | 218 | – |
| Cc1ncnc(N2CCC(CC(=O)N(C)CCN(C)C)CC2)c1C#Cc1ccc(N)nc1 [Example E-3] | 2001 | – | 457 |
| CCc1ncnc(N2CCc3c(ncnc3N3CCOCC3)C2)c1C#Cc1ccc(N)nc1 [Example H-27] | 103 | – | 139 |
| CCc1ncnc(N2CCNC(=O)C2)c1C#Cc1ccc(N)nc1 [Example H-5] | 745 | – | 91 |
| CCc1ncnc(N2CCn3c(COC)nnc3C2)c1C#Cc1ccc(N)nc1 [Example H-8] | 185 | – | 127 |
| CCc1ncnc(N2CCN(CCN3CCOCC3)CC2)c1C#Cc1ccc(N)nc1 [Example H-9] | 449 | – | 1570 |
| CCOC1CCN(c2ncnc(CC)c2C#Cc2ccc(N)nc2)CC1 [Example B-46] | – | 72 | – |
| Cc1ncnc(N2CCC(CNC(=O)CC(C)C)CC2)c1C#Cc1ccc(N)nc1 [Example F-7] | 47 | – | 237 |
| Cc1ncnc(N2CCC(CC(=O)NCCN(C)C)CC2)c1C#Cc1ccc(N)nc1 [Example E-8] | 149 | – | 261 |
| CCc1ncnc(N2CCNC(=O)C2)c1C#Cc1ccc(N)nc1 [Example H-4] | 58 | – | 45 |
| CCc1ncnc(N2CCc3cc(OC)c(OC)cc3C2)c1C#Cc1ccc(N)nc1 [Example H-18] | 43 | – | 83 |
| Cc1ncnc(N2CCC(CNC(=O)CN(C)C)CC2)c1C#Cc1ccc(N)nc1 [Example F-4] | 301 | – | 457 |
